Experimental data published in a melting point compilation (Tetko et al.; mined from patent text by program, amines drawn as free bases though some values may be those of a salt).

| Compound | melting point [°C] |
| --- | --- |
| CCCc1nc2ccccc2n1CCC1CCN(c2ccccc2-c2nnn[nH]2)CC1 | 231 to 233 |
| Oc1c(C2CCCC2)cc(C2CCCC2)cc1C1CCCC1 | 104 |
| O=S(=O)(c1ccccc1)N(CCCN1CC=C(c2ccccc2)CC1)c1ccccc1 | 112 |
| COc1nc(-n2cc(C(=O)O)c(=O)c3cc(F)c(F)c(Cl)c32)c(F)cc1F | 205 to 210 |
| CCC[C@@H]1CCC[C@H](NC(=O)OC(C)(C)C)C(=O)N1 | 114 to 116 |
| Cc1cc(C)cc(CCCn2c(=O)c3c(N4CCN(C)CC4)cc(Cl)cc3n(Cc3ccccc3)c2=O)c1 | 67 to 73 |
| O=C(N1CCCC1)C(CCN1CCC(O)(c2ccccc2)CC1)(c1ccccc1)c1ccccc1 | 188 |
| O=[N+]([O-])c1cc(Cl)c(Cl)cc1O | 63 to 65 |
| O=[N+]([O-])c1ccc2c(c1)N(c1nnn[nH]1)CC2 | 262 to 270 |
| CCc1nnc(C(CCN2CC3CCC2CC3)(c2ccccc2)c2ccccc2)o1 | 96 to 98.5 |
| CCCc1nc(N)nc(N)c1N1CCN(c2ccc(C(=O)N[C@@H](CCC(=O)OCC)C(=O)OCC)cc2)CC1 | 175 to 180 |
| Cc1cc([N+](=O)[O-])ccc1N=C1C2CC3CC(C2)CC(C3)N1C1CCCC1 | 149 to 152 |
| CS(=O)(=O)NCc1cc(Br)cc2[nH]c(=O)c(=O)[nH]c12 | > 300 |
| CN1C(=O)[C@H](NC(=O)/C=C/c2ccc(Cl)cc2Cl)N=C(c2ccccc2)c2ccccc21 | 137 to 139 |
| FC(F)Oc1cccc2cnsc12 | 58 to 59 |
| Cn1cc2c3c(ccc2n1)CCC3=CC#N | 189 to 192 |
| N#CC(Cc1ccccc1)C(=O)O (centres undefined) | 97 |
| CC(=O)SCC(C(=O)O)C(F)(F)F (centres undefined) | 28 to 30 |
| CNC(=O)Oc1cc(C)c(NC(=O)C(F)(F)Cl)cc1C | 187 to 188 |
| C#CCCCOc1cc(C=O)ccc1OC | 73 to 74 |
| COc1ncc(CN2C(=O)C3(COc4cc5c(cc43)CCO5)c3ccccc32)cn1 (centres undefined) | 203 to 204 |
| Cc1sc(-n2cccc2)c(C#N)c1C | 45 |

| Compound | melting point [°C] |
| --- | --- |
| CC1(C(=O)C(N)=O)CC1(Cl)Cl (centres undefined) | 92 to 93 |
| CC(C)CC(=O)Nc1cc(-c2ccnc3c(C(=O)c4cccs4)cnn23)cs1 | 234 to 235 |
| CSc1nc(Cl)c([N+](=O)[O-])c(N2CCS(=O)CC2)n1 | 176 to 178 |
| CN(CCCNC(=NCCCCOc1cccc(CN2CCCCC2)c1)NC#N)CCN(Cc1ccc(F)cc1)c1ccccn1 | 102 to 105 |
| CC1(C)C2CC[C@@]1(C)C(C(=O)N1C(=O)OC(C#CC3CC3)(C(F)(F)F)c3cc(Cl)ccc31)C2 (some centres undefined) | 164 to 165 |
| CC(C)(C)CC(C)(C)Nc1nc(Cl)nc(N2CC3CCC(CC3)C2)n1 | 159 to 162 |
| N#Cc1cc(C2CCCCC2)c(C(=O)O)cn1 | 225 to 230 |
| O=C1CCCN1C(c1ccccc1Cl)N1CCN(c2ncccn2)CC1 (centres undefined) | 166 to 177 |
| CCc1nc2c(C)cc(C)nc2n1Cc1ccc(C(c2ccccc2)C(CO)c2nnn[nH]2)cc1 (centres undefined) | 128 to 132 |
| COC(=O)c1nc(-c2ccccc2)n2c1CN=C(c1ccccc1Cl)c1cc(Cl)ccc1-2 | 272 to 275 |
| CCCN(c1ccccc1)C1CCN(CCOc2c(C)cccc2C)CC1 | 82 |
| O=C(Nc1ccc(Oc2ccnc(NC3CCCCC3)n2)c2ccccc12)c1cc(F)cc(N2CCCCC2)c1 | 118 to 120 |
| CC(=O)N1CCc2cc(CCN3CCC(c4noc5cc(F)ccc45)CC3)sc2C1 | 130 to 132 |
| CC(C)(C)OC(=O)NCC1CCN(CC2(C(=O)O)CCCC2)CC1 | 150 |
| CC(=O)SCC(C(=O)N1CC2(C[C@H]1C(=O)O)C(=O)CCC2=O)C(F)(F)F (some centres undefined) | 153 to 155 |
| CCCNCCc1cccc(NS(=O)(=O)c2cccc(Cl)c2)c1 | 145 to 148 |
| COP(=O)(CC(=O)C(C)(C)Cc1ccccc1)OC | 39 to 46 |
| C1=CNC2=NCCN2C1 | 107 to 113 |
| C[C@]12C(=O)[C@]3(C)O[C@]3(C)C(=O)[C@H]1[C@H]1C=C[C@@H]2C1 (racemic) | 72 to 73 |
| Cc1nc(Cn2c(=O)sc3cc(F)c(N)cc32)no1 | 156 to 157 |
| Cc1[nH]c2ccc(O)cc2c1C(=O)NC1CCN(CCc2ccccc2)CC1 | 232 to 236 |
| CC(C(=O)O)(c1ccc(OCc2ccc3ccccc3n2)cc1)c1ccc(OCc2ccc3ccccc3n2)cc1 | 208 to 210 |

Next, values leading:

| melting point [°C] | Compound |
| --- | --- |
| 268 | CCn1c2c(c3ccccc31)S(=O)(=O)N(C)C(C(=O)Nc1ccccc1)=C2O |
| 204 to 206 | CN(C)C=CC(=O)c1ccc(Cl)c(S(=O)(=O)N=CN(C)C)c1 |
| 106 to 108 | O=c1oc(-c2cccc(S(=O)C(F)(F)F)c2)nc2ccccc12 (centres undefined) |
| 140 to 145 | CCCCN(CCCC)c1nc(Nc2ccc3c(c2)C(=O)c2ccccc2C3=O)nc(N(CCCC)CCCC)n1 |
| 232 to 233 | c1cnc(NCc2ccc(-c3n[nH]c4c3Cc3ccccc3-4)s2)nc1 |
| 91 to 93 | CCOC(=O)CCCCC(NS(=O)(=O)c1ccc(F)cc1)c1ccc2ccccc2c1 (centres undefined) |
| 124 to 127 | Cc1oc(-c2ccccc2)nc1CCOc1ccc(CC(Nc2ccccc2C(=O)c2ccccc2)C(=O)O)c2sccc12 (centres undefined) |
| 160 to 162 | CCS(=O)(=O)Nc1cc(-c2ncnc(C(C)C)c2Cl)c(F)cc1C#N |
| 164 to 166 | CCOP(=O)(CC(Nc1cccnc1)c1cc(OC)c(O)c(OC)c1)OCC (centres undefined) |
| 248 to 249 | CCn1cc(C(=O)O)c(=O)c2cc(F)c(N3CCN(C)C(c4cc5cc(Cl)ccc5o4)C3)cc21 (centres undefined) |
| 194 to 195 | CC(Cn1nccn1)n1nnc2cc3c(=O)n(C(C)Cn4nccn4)nnc3cc2c1=O (centres undefined) |
| 150 to 151 | CNC(=O)c1cc(-c2ccc(OC)cc2)nn(C)c1=O |
| 168 to 170 | O=Cc1c(Cl)nc2ccccc2c1-c1ccc(F)cc1 |
| 179 to 180 | CCOC(Cc1ccc(OCc2nc(C(C)(C)C)oc2C)c2ccsc12)C(=O)O (centres undefined) |
| 141 to 142 | COc1cc(OC)nc(C(=O)c2cccc(Cl)c2C(=O)N(C)C)n1 |
| 202 to 204 | O=C(CC(=O)c1ccccc1)Nc1ccccc1NC(=O)CC(=O)c1ccccc1 |
| 165 to 167 | CC1=NNC(=O)CC1c1ccc(OC2CCN(C(=O)OC(C)(C)C)CC2)cc1 (centres undefined) |
| 270 | O=c1c2ccc(-c3nnn[nH]3)cc2oc2ccc(OCCO)cc12 |
| 201 to 202 | COc1cc(C#N)cc(-c2ccc3c(c2)C(C)(C)OC(=S)N3)c1 |
| 252 to 253 | Cc1cc(-c2nc3cccnn3c2-c2ccnc(NC(=O)c3cccc4ccccc34)c2)ccc1F |
| > 250 | COc1cc2c(Nc3ccc(Br)cc3F)ncnc2cc1OCCCS(C)(=O)=O |
| 244 to 246 | N#Cc1cnn2c(-c3cccc([N+](=O)[O-])c3)ccnc12 |
| 203 | Cc1ncn(-c2cc(F)ccc2CNC(=O)c2nc3n(c(=O)c2OCc2ccccc2)CCOC3(C)C)n1 |
| 76 to 77 | CON=C(C(=O)OC(C)C)c1ccccc1CBr |
| 153 to 154 | Cc1cc(C(O)=S)cc(N)c1Cc1ccccc1 |
| 160 to 162 | COC(=O)c1[nH]c(=S)n(Nc2cccc(Cl)c2)c1C |
| 153 to 154 | CCc1oc2ccccc2c1C(=O)c1c(Br)cc(Br)c(O)c1Br |
| 234 to 235 | CCc1ccc(-c2ccc(C(=O)N[C@@H]3CCc4cccc(N5CCN(C)CC5)c4C3)cc2)cc1 |

| melting point [°C] | Compound |
| --- | --- |
| 58.5 | CCCCC(CC)COc1cc(-c2ccccn2)nc(-c2ccccn2)c1 (centres undefined) |
| 212 to 214 | Cc1cc(O)ccc1-c1cnc2[nH]c(=O)n(CC3CCCCC3)c2n1 |
| 85 to 87 | CCOC(=O)c1cnc2c(cnn2CC)c1O |
| 129 to 131 | Brc1ccc2c(c1)COCc1cc(Br)ccc1-2 |
| 166 to 168 | COC1CCN2C(=O)c3cccc(NC(=O)Nc4ccccn4)c3C2C1 (centres undefined) |
| 118 | CCCC(=O)Nc1cc(Oc2ccccc2)ccc1NC(=NC(=O)OCC)SC |
| 65 to 67 | Cc1ccc(S(=O)(=O)OCC2CN(C)c3ccc(Cl)cc3O2)cc1 (centres undefined) |
| 147 to 150 | CCn1c(-c2ccccc2)c(C2=CCC(C(=O)O)CC2)c2ccccc21 (centres undefined) |
| 213 to 215 | O=S1(=O)c2ccccc2Oc2cc(O)ccc21 |
| 116 | COc1ccc(CC(=O)NCc2ccccc2-c2ccccc2C(=O)NCCc2cccnc2)cc1 |
| > 250 | CSc1nn2c(N)cc(C)nc2c1S(=O)(=O)c1ccccc1C |
| 70 to 71 | CC(=O)n1c2ccccc2c2ccccc21 |
| 126 to 127 | O=C(NCCO)c1cncc(-c2cccc3cc(Cc4cc(F)cc(Cl)c4)sc23)c1 |
| 135 to 136 | CC(=O)CCS(=O)(=O)c1ccc(C=C(C)c2ccc3c(c2)C(C)(C)CCC3(C)C)cc1 |
| 95 to 97 | Cc1ccccc1-c1c(C(=O)N(C)C)ccc2ccccc12 |
| 48 to 51 | Cc1cc(COc2ccc(Oc3ccccc3)cc2)on1 |
| 251 to 252 | Cc1nc2cccc(Cn3ccc4cc(Cl)ccc43)c2c(=O)[nH]1 |
| 142 | O=C(c1ccc(C(F)(F)F)cc1)N1CCC(=Cc2ccc(C3=NCCO3)cc2)CC1 |
| 145 to 147 | COc1ccc(-c2cc(F)ccc2C#N)cc1 |
| 108 to 110 | CN(Cc1cc2c3c(c1)c(=O)c(C(=O)NCc1ccc(F)cc1)cn3CC(=O)N2C)C[C@@H](O)c1cnccn1 |
| 201 to 202 | Cn1nc(Cl)cc(Nc2ccccn2)c1=O |
| 280 | CC(C)C(=O)Nc1ccc(-c2c[nH]c(=O)cn2)cc1 |
| 59 to 60 | CCOc1ccccc1NC(=O)C(C)(C)CCCOc1cc(C)ccc1C |
| 289 to 290 | CN1CCN(c2ccc3ncnc(N4CCc5ccc(Cl)cc54)c3c2)CC1 |
| 264 to 265 | CCc1[nH]n(C2CCCC2)c2nc(-c3cccc(-n4ccnc4)c3)nc(=O)c1-2 |
| 177 to 179 | O=S(c1cc(Br)c(-c2ccc(Cl)cc2)[nH]1)C(F)(F)F (centres undefined) |
| 126 | Cc1cccc(C(=O)CSC(=S)Nc2ccc(Cl)cn2)c1 |
